Source: article PMC6526117 (Experimental Neurobiology, 2019)
Changes are numbered by the printed parent chain.

Columns and labels:
Assay in all cases: whole-cell patch clamp, SCAM block of ICl,swell
Type in all cases: cell-based
Settings in all cases: read-out: % block
TTYH1 [1] = target: T1, TTYH1 (Mus musculus, UniProt Q9D3A9)
T1 sequence (Q9D3A9 1-450): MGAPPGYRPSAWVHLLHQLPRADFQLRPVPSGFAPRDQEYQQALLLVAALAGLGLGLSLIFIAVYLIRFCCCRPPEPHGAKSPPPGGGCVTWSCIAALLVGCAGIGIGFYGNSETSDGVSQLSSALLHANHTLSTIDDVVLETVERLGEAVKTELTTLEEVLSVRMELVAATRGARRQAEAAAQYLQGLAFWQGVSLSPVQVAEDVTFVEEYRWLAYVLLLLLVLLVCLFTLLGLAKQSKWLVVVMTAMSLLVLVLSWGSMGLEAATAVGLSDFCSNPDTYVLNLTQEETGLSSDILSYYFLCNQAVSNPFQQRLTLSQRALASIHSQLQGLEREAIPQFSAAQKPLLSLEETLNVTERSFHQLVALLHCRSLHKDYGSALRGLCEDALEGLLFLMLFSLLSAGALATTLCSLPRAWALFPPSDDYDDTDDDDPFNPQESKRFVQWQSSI

TTYH1 [2] = target: T2, TTYH1 (Mus musculus, UniProt Q9D3A9, R165C)
T2 sequence (Q9D3A9 1-450 R165C): T1 sequence (Q9D3A9 1-450) with R165C

TTYH1 [3] = target: T3, TTYH1 (Mus musculus, UniProt Q9D3A9, V164C)
T3 sequence (Q9D3A9 1-450 V164C): T1 sequence (Q9D3A9 1-450) with V164C

CS(=O)(=O)SCCS(=O)(=O)O [MTSES]
inhibition at 100000 µM (TTYH1 [1]): 9.01% | inhibition at 100000 µM (TTYH1 [2]): 36.6% | inhibition at 100000 µM (TTYH1 [3]): 28.9%
